This note sets out measurements from ChEMBL document CHEMBL4177721, “Synthesis, antitumor activity, and cytotoxicity of 4-substituted 1-benzyl-5-diphenylstibano-1H-1,2,3-triazoles” (Bioorg Med Chem Lett, 2018).

The test system of data set [1] is P388. The data set can be described thus: Antitumor activity against mouse P388 cells incubated for 72 hrs by MTT assay. It is filed as functional, cell-based. To be noted: P388, 72 h. In general terms: Formazan colour is commonly taken as a measure of viable cells.
Data set [2] has as its system HT-1080. The data set can be described thus: Antitumor activity against human HT1080 cells incubated for 72 hrs by MTT assay. Type of data set: functional, cell-based. To be noted: HT-1080, 72 h.
Data set [3] deals with KB. The data set can be described thus: Antitumor activity against human KB cells incubated for 72 hrs by MTT assay. Type of data set: functional, cell-based.
The test system of data set [4] is DLD-1. The data set can be described thus: Antitumor activity against human DLD1 cells incubated for 72 hrs by MTT assay. It is filed as functional, cell-based. To be noted: DLD-1, 72 h.
The nature of data set [5]: Cytotoxicity against bovine aorta vascular endothelial cells assessed as reduction in cell viability incubated for 24 hrs by MTT assay. To be noted: cattle. It is filed as cell-based, Bos taurus.
The subject of data set [6] is MCF7. Briefly: Antitumor activity against human MCF7 cells incubated for 72 hrs by MTT assay. Type of data set: functional, cell-based. To be noted: MCF7, 72 h.
The test system of data set [7] is HL-60. Briefly: Antitumor activity against human HL60 cells incubated for 72 hrs by MTT assay. It is filed as functional, cell-based. To be noted: HL-60, 72 h.
Data set [8] relates to NUGC-3. The data set can be described thus: Antitumor activity against human NUGC3 cells incubated for 72 hrs by MTT assay. To be noted: NUGC-3, 72 h. Type of data set: functional, cell-based.
The test system of data set [9] is B16-F10. Briefly: Antitumor activity against mouse B16F10 cells incubated for 72 hrs by MTT assay. Type of data set: functional, cell-based. To be noted: B16-F10, 72 h.
Data set [10] relates to KB. The data set can be described thus: Antitumor activity against human KB cells at 0.5 uM incubated for 72 hrs by MTT assay. It is filed as functional, cell-based.
Data set [11] has as its system MCF7. The data set can be described thus: Antitumor activity against human MCF7 cells at 0.5 uM incubated for 72 hrs by MTT assay. It is filed as functional, cell-based.
For data set [12], the system named is B16-F10. Briefly: Antitumor activity against mouse B16F10 cells at 0.5 uM incubated for 72 hrs by MTT assay. Type of data set: functional, cell-based.
The subject of data set [13] is DLD-1. Briefly: Antitumor activity against human DLD1 cells at 0.5 uM incubated for 72 hrs by MTT assay. Type of data set: functional, cell-based.
Data set [14] has as its system P388. Briefly: Antitumor activity against mouse P388 cells at 0.5 uM incubated for 72 hrs by MTT assay. It is filed as functional, cell-based.
Data set [15] has as its system HL-60. Briefly: Antitumor activity against human HL60 cells at 0.5 uM incubated for 72 hrs by MTT assay. Type of data set: functional, cell-based.
Data set [16] has as its system NUGC-3. The data set can be described thus: Antitumor activity against human NUGC3 cells at 0.5 uM incubated for 72 hrs by MTT assay. Type of data set: functional, cell-based.
Data set [17] has as its system HT-1080. The data set can be described thus: Antitumor activity against human HT1080 cells at 0.5 uM incubated for 72 hrs by MTT assay. It is filed as functional, cell-based.

Activity calls are given as the source filed them. The calls are words filed in the database; no cut-off is given here.

By IC50 is commonly meant the point on the concentration scale where inhibition reaches its midpoint. High values mean a need for much substance, low ones inhibition by little substance. Usually CC50 stands for the concentration at which the toxic effect on the cells reaches its halfway point. Turning to `c1ccc(Cn2cc(-c3ccccc3)nn2)cc1`, the IC50 in the data set with P388 [1] is 99.1 µM; with HT-1080 [2] it was 651 µM; in the data set on KB [3], more than 100 µM; with DLD-1 [4] it was more than 100 µM; with MCF7 [6] it was 490 µM; in the data set with HL-60 [7], more than 100 µM. For the same molecule, the IC50 in the data set on NUGC-3 [8] stood at 836 µM; with B16-F10 [9] it was 96.1 µM. Besides, the CC50 at 24 h in [5] is more than 100 µM.

On to `COc1ccc(-c2cn(Cc3ccccc3)nn2)cc1`, for which the IC50 is 83.8 µM with P388 [1]; 146 µM with HT-1080 [2]; 86.6 µM in the data set on KB [3]; 139 µM with DLD-1 [4]; 231 µM in the data set on MCF7 [6]; more than 100 µM in the data set with HL-60 [7]. The values for the IC50 in the data set on NUGC-3 [8] and in the data set with B16-F10 [9] were 158 µM and 88.5 µM, respectively. Also, the CC50 at 24 h in data set [5] is more than 100 µM.

For the molecule `C1=C(c2cn(Cc3ccccc3)nn2)CCCC1`, the IC50 was 49.6 µM in the data set with P388 [1]; 219 µM in the data set with HT-1080 [2]; more than 100 µM in the data set on KB [3]; more than 100 µM with DLD-1 [4]; more than 100 µM in the data set with MCF7 [6]; 171 µM in the data set with HL-60 [7]. In addition, the values for the concentration for half-maximal inhibition (IC50) in the data set on NUGC-3 [8] and with B16-F10 [9] were more than 100 µM and 45.5 µM, respectively. Moreover, the CC50 at 24 h in [5] is more than 100 µM.

Consider `CCCCc1cn(Cc2ccccc2)nn1`, for which the half-maximal inhibitory concentration (IC50) in the data set on P388 [1] is 217 µM; in the data set on HT-1080 [2], more than 100 µM; in the data set on KB [3], more than 100 µM; in the data set with DLD-1 [4], more than 100 µM; in the data set with MCF7 [6], more than 100 µM; in the data set on HL-60 [7] it was more than 100 µM. Further, the IC50 in the data set on NUGC-3 [8] is more than 100 µM; in the data set on B16-F10 [9] it was 421 µM. In addition, the 50% cytotoxic concentration (CC50) at 24 h in [5] was more than 100 µM.

`Cc1ccc(-c2cn(Cc3ccccc3)nn2)cc1`: the IC50 in the data set on P388 [1] is 94.1 µM; in the data set on HT-1080 [2], 84.4 µM; in the data set on KB [3] it was 79.5 µM; in the data set on DLD-1 [4] it was 102 µM; with MCF7 [6], 253 µM; in the data set on HL-60 [7], more than 100 µM. Also, the results for the half-maximal inhibitory concentration (IC50) in the data set with NUGC-3 [8] and with B16-F10 [9] were 129 µM and 66.4 µM, respectively. In data set [5], the CC50 at 24 h is more than 100 µM.

In the case of “1-Benzyl-4-(p-tolyl)-5-(diphenylstibano)-1H-1,2,3-triazole”, the result in the data set with KB [10], with MCF7 [11], with B16-F10 [12], in the data set on DLD-1 [13], in the data set with P388 [14] and with HL-60 [15] was Active. Also, the outcome in the data set with NUGC-3 [16] and with HT-1080 [17] was Active.

Turning to `FC(F)(F)c1ccc(-c2cn(Cc3ccccc3)nn2)cc1`, the half-inhibitory concentration (IC50) amounted to 17.5 µM with P388 [1]; 57.7 µM with HT-1080 [2]; 60.2 µM in the data set with KB [3]; 74.3 µM with DLD-1 [4]; 162 µM in the data set on MCF7 [6]; 171 µM with HL-60 [7]. Further, the IC50 amounted to 81 µM in the data set with NUGC-3 [8] and 35.4 µM in the data set with B16-F10 [9]. Also, the CC50 at 24 h in data set [5] is more than 100 µM.
